Holding throughout (experiment): relative viability (nuclei count vs DMSO), 5 days (fraction); higher = more cells survive
Compound in assay [1]: CC1=NC=CC(=C1)C2=CC=C(C=C2)CC(=O)NC3=CC=C(C=C3)C4=CN=CC=C4 [Wnt-C59] + CCNC(=O)c1noc(-c2cc(C(C)C)c(O)cc2O)c1-c1ccc(CN2CCOCC2)cc1 [Luminespib] (partner 0.01 µM)
Summed up:
(§1)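 Values are medians from duplicate plates. Each reflects relative viability, defined as the nuclei count of treated wells over that of vehicle wells. Lung cancer cell lines in 1536-well plates were pin-tool dosed one day after seeding with one drug alone or with a fixed anchor-drug dose plus five library-drug doses (not always all listed) in √10 steps, then fixed, stained and imaged at 4× after 5 days.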

Compound in assay [2]: CS(=O)(=O)CCNCc1ccc(-c2ccc3ncnc(Nc4ccc(OCc5cccc(F)c5)c(Cl)c4)c3c2)o1 [Lapatinib] + CS(=O)(=O)N1CCN(Cc2cc3nc(-c4cccc5[nH]ncc45)nc(N4CCOCC4)c3s2)CC1 [Pictilisib] (partner 1 µM)
In short, it runs like this:
as §1

Compound in assay [3]: CC1=NC=CC(=C1)C2=CC=C(C=C2)CC(=O)NC3=CC=C(C=C3)C4=CN=CC=C4 [Wnt-C59] + CS(=O)(=O)N1CCN(Cc2cc3nc(-c4cccc5[nH]ncc45)nc(N4CCOCC4)c3s2)CC1 [Pictilisib] (partner 1 µM)
Summed up:
as §1

As for UMC-11, the relative viability in assay [1] (first compound 0.001 µM) worked out at 0.932; in assay [1] (first compound 0.01 µM), 1.1; in assay [1] (first compound 0.03162 µM), 1.19; in assay [1] (first compound 0.1 µM), 0.979; in assay [2] (first compound 0.02 µM), 0.251; in assay [2] (first compound 0.06325 µM) it was 0.731. In addition, the relative viability came out at 0.827 in assay [2] (first compound 0.2 µM); 0.839 in assay [2] (first compound 0.6325 µM); 0.759 in assay [2] (first compound 2 µM); 0.81 in assay [3] (first compound 0.001 µM); 0.843 in assay [3] (first compound 0.01 µM); 0.844 in assay [3] (first compound 0.03162 µM). Moreover, the relative viability in assay [3] (first compound 0.1 µM) was 0.756.

The values are drawn from the supplement of paper PMC10307832.
